Reference: US10583112B2, “Benzo[b]furans as bromodomain inhibitors” (GlaxoSmithKline Intellectual Property (No. 2) Limited, priority 2016, dated 2020)

Key:
[1] = test system: double residue mutant tandem domain protein of each of the BET family members; test: Fluorescence Polarisation binding affinity, double mutants; parameters: species or system Human
Method: (§1) The competition of the compounds of formula (I) with Reference Compound X for binding to the BET family (BRD2, BRD3, BRD4 and BRDT) was assessed using protein truncates spanning both bromodomain 1 (BD1) and bromodomain 2 (BD2). In order to monitor differential binding to either BD1 or BD2, single residue mutations of key tyrosines to alanine were made in the acetyl lysine binding pockets. To validate this approach, a double residue mutant tandem domain protein was produced for each of the BET family members. Utilising a Fluorescence Polarisation approach, binding affinities for each of the single and double mutants for Reference Compound X were determined. […] The affinities of the single mutated bromdomain tandem proteins for Reference Compound X were equi-potent with the corresponding non-mutated BET protein. […] In the TR-FRET competition assay, Reference Compound X is used at a concentration that is equivalent to the Kd for the non-mutated bromodomain, which ensures that no binding at the mutated bromodomain is detected. […]

[2] = test system: single mutated bromodomain tandem proteins (BET family); test: Fluorescence Polarisation binding affinity, single mutants; parameters: species or system Human
Method: as §1

BRD4 BD1 = target: T1, BRD4 BD1 (Homo sapiens, UniProt O60885, Y390A); test: BRD4 BD1 TR-FRET competition assay; assay type: binding; conditions: mean, n given; read-out: pIC50 in the BRD4 BD1 TR-FRET assay (converted)
T1 construct: BRD4 (1-477) (Y97A) and (Y390A); made in house; host or cells: E. coli (pET15b vector)
Method: Bromodomain binding was assessed utilising a time resolved fluorescent resonance energy transfer (TR-FRET) competition assay. To enable this approach a known, high affinity, pan-BET interacting small molecule was labelled with Alexa Fluor® 647, which is a far-red-fluorescent dye (Reference Compound X). Reference Compound X acts as a reporter of bromodomain binding and is the acceptor fluorophore component of the TR-FRET pair. Europium chelate, conjugated to an anti-6*His antibody, was utilised as the donor fluorophore in the TR-FRET pair. […]
The competition of the compounds of formula (I) with Reference Compound X for binding to the BET family (BRD2, BRD3, BRD4 and BRDT) was assessed using protein truncates spanning both bromodomain 1 (BD1) and bromodomain 2 (BD2). […] Utilising a Fluorescence Polarisation approach, binding affinities for each of the single and double mutants for Reference Compound X were determined. […]
All assay components were dissolved in an assay buffer composing of 50 mM HEPES pH7.4, 50 mM NaCl, 5% Glycerol, 1 mM DTT and 1 mM CHAPS. […] TR-FRET was detected using a Perkin Elmer Multimode plate reader, by exciting the donor fluorophore at λ337 nm and subsequently, after a delay of 50 μsecs, measuring emission of the donor and acceptor fluorophores at λ615 nm and λ665 nm, respectively. […]

BRD4 BD2 = target: T2, BRD4 BD2 (Homo sapiens, UniProt O60885, Y97A); test: BRD4 BD2 TR-FRET competition assay; assay type: binding; conditions: for Selectivity for BRD4 BD2 over BRD4 BD1 (BRD4 BD2 pIC50 - BRD4 BD1 pIC50): in at least one of the TR-FRET assays; for fold selective for BRD4 BD2 over BRD4 BD1: inferred from the log unit selectivity; for IC50: mean where stated, n given, read-out: pIC50 in the BRD4 BD2 TR-FRET assay (converted)
T2 construct: BRD4 (1-477) (Y97A) and (Y390A); made in house; host or cells: E. coli (pET15b vector)
Method: Bromodomain binding was assessed utilising a time resolved fluorescent resonance energy transfer (TR-FRET) competition assay. […] Europium chelate, conjugated to an anti-6*His antibody, was utilised as the donor fluorophore in the TR-FRET pair.
In order to generate a TR-FRET signal, donor fluorophore is excited by a laser at λ337 nm, which subsequently leads to emission at λ618 nm.
In order to monitor differential binding to either BD1 or BD2, single residue mutations of key tyrosines to alanine were made in the acetyl lysine binding pockets. To validate this approach, a double residue mutant tandem domain protein was produced for each of the BET family members.
Final purification was completed by Superdex 200 prep grade size exclusion column. Purified protein was stored at −80° C. in 20 mM HEPES pH 7.5 and 100 mM NaCl.
All assay components were dissolved in an assay buffer composing of 50 mM HEPES pH7.4, 50 mM NaCl, 5% Glycerol, 1 mM DTT and 1 mM CHAPS. […] An equal volume of 3 nM of anti-6*His Europium chelate was added to all wells, followed by a further 30 minute incubation at room temperature. TR-FRET was detected using a Perkin Elmer Multimode plate reader, by exciting the donor fluorophore at λ337 nm and subsequently, after a delay of 50 μsecs, measuring emission of the donor and acceptor fluorophores at λ615 nm and λ665 nm, respectively.
cA four parameter curve fit of the following form was then applied: y=a+((b−a)/(1+(10^x/10^c)^d) • Where ‘a’ is the minimum, ‘b’ is the Hill slope, ‘c’ is the pIC50 and ‘d’ is the maximum.

| SMILES | reduction in Kd (affinity) versus non mutated, wild type tandem BET proteins [1] | affinity versus corresponding non-mutated BET protein [2] | IC50 (BRD4 BD1) | Selectivity for BRD4 BD2 over BRD4 BD1 (BRD4 BD2 pIC50 - BRD4 BD1 pIC50) (BRD4 BD2) | fold selective for BRD4 BD2 over BRD4 BD1 (BRD4 BD2) | IC50 (BRD4 BD2) |
| --- | --- | --- | --- | --- | --- | --- |
| COc1ccc2c(c1)C(c1ccc(Cl)cc1)=N[C@@H](CC(=O)NCCCCCNC(=O)CCCCCC1(C)/C(=C/C=C/C=C/C3=[N+](CCCCS(=O)(=O)O)c4ccc(S(=O)(=O)O)cc4C3(C)C)N(CCCCS(=O)(=O)[O-])c3ccc(S(=O)(=O)O)cc31)c1nnc(C)n1-2 (stereo partly shown) [Reference Compound X] | > 1000 fold | equi-potent | – | – | – | – |
| CNC(=O)c1cc(C(=O)N[C@H]2[C@@H]3CN(C(=O)OC(C)(C)C)C[C@@H]32)cc2c1O[C@H](C)[C@H]2c1ccccc1 [Example 38, (1R,5S,6S)-tert-Butyl 6-((2R,3S)-2-methyl-7-(methylcarbamoyl)-3-phenyl-2,3-dihydrobenzofuran-5-carboxamido)-3-azabicyclo[3.1.0]hexane-3-carboxylate] | – | – | 20 µM | 3.3 log unit | at least 100 fold | 0.01 µM |
| CNC(=O)c1cc(C(=O)NCCCC2CNCCO2)cc2c1O[C@H](C)[C@H]2c1ccccc1 (stereo partly drawn) [Example 54, (2R,3S)—N^7,2-Dimethyl-N^5-(3-(morpholin-2-yl)propyl)-3-phenyl-2,3-dihydrobenzofuran-5,7-dicarboxamide] | – | – | 25.1 µM | 3.2 log unit | at least 1000 fold | 0.0158 µM |
